Results on one compound are retold here after patent US20250382346A1, “NEURONAL PROMOTERS AND USES THEREOF” (priority 2023, published 2025).

Assay [1] deals with T1, hM3Dq (Homo sapiens, UniProt P20309, A239G/Y149C).
T1 construct: expressed in transfected cells; host or cells: neurons of C57BL/6J mice or of macaques, transduced in vivo by nigral AAV8R12-G88P3-HA-hM3Dq
Briefly: Striatal slice whole-cell recordings of retrogradely labeled D1-MSNs, hM3Dq. Type of assay: cell-based, mice. The note with it: AAV8R12-G88P3-HA-hM3Dq-2A-EYFP; CNO 10 μM; basal firing rate and resting membrane potential unaffected. From the text: Mice from different groups were anesthetized with […] isoflurane, and then decapitated. The brain was quickly extracted and placed in ice-cold N-methyl-D-glucamine (NMDG) cutting solution containing (in mM): 92 NMDG, 2.5 KCl, 25 NaHCO3, 1.25 NaH2PO4, 4.5 D-Glucose, 20 HEPES, 5 L-ascorbic acid, 3 Na-pyruvate, 2 Thiourea, 10 MgSO4, 0.5 CaCl2). The pH was adjusted to 7.2±0.1 using HCl and the osmolarity was adjusted to 305±5 mosmol/L using NMDG. The solution was bubbled with 95% O2/5% CO2 prior to use. Coronal striatum slices were cut in 250-[…]m thickness with a vibratome slicer (Leica, VT1200 S), and then incubated in artificial cerebrospinal fluid (aCSF) saturated with 95% O2/5% CO2 for at least 45 min at 37° C. before recording. The aCSF contains (in mM) 125 NaCl, 1.25 KCl, 25 NaHCO3, 1.25 KH2PO4, 25 D-Glucose, 2 CaCl2) and 1 MgCl2, supplemented with 2 mM Na-pyruvate, 3 mM Myo-inositol and 0.4 mM L-ascorbic acid.
The acute striatum slice was transferred to the recording chamber with a constant perfusion of oxygenized aCSF at the rate of 3 ml/min. Neurons were visualized using an upright microscope (Olympus, BX-51) with a 40× water immersion objective at room temperature (˜25° C.). […] Neurons were quickly visualized under fluorescence microscope and then patch clamp were achieved under infrared light illumination and CCD camera. […]

Assay [2] deals with T1, hM3Dq. Kind of assay: In vivo electrophysiological recording in caudate of anesthetized macaques, hM3Dq. How it is done: • Electrophysiological recording was performed through a recording chamber while the monkey was anesthetized. Neural responses were recorded by a 16-channel linear probe (Plexon Inc, Uprobe) driven by a mechanical microdrive (Alpha Omega, FlexMT). Signals were passed through a head stage (Plexon Inc, HST/16V-G20 LN) and then split and filtered between 300 Hz and 5 kHz to identify spiking activity with an amplifier system (Plexon Inc, OmniPlex). Detected spikes were then sorted by commercially available software (Plexon Inc, Offline Sorter) for further analysis. To quantify the effect of CNO/DCZ injection, neural activity was recorded for 60 minutes following CNO/DCZ injection. The response time-course for each channel was obtained by counting the spikes within every 10-minute window and then normalizing to the maximal.
To determine the effect of CNO/DCZ injection on the direction of signal change, we performed Pearson correlation between neural responses and time using the ‘corr’ function in Matlab, which generates the correlation coefficient ‘r’ and significant level ‘p’. A neuron was considered to have “Increased” activity when r>0 and p<0.05; and considered to have “Decreased” activity when r<0 and p<0.05. Otherwise, neurons were considered to be “Unchanged” in their neural activities. The responses of all increased neurons were then averaged after being normalized by the maximal response (Crowe et al., 2014; Dai and Wang, 2018; Hirokawa et al., 2019) following CNO/DCZ injection, and then plotted as a function of time to generate the normalized population response.

Setting [3] is: 34 total cells, CNO infusions, saline 40.6%.
Setting [4] is: monkey CM045, 34 cells, CNO infusion into dorsomedial caudate.

T1 sequence (P20309 whole entry Y149C/A239G): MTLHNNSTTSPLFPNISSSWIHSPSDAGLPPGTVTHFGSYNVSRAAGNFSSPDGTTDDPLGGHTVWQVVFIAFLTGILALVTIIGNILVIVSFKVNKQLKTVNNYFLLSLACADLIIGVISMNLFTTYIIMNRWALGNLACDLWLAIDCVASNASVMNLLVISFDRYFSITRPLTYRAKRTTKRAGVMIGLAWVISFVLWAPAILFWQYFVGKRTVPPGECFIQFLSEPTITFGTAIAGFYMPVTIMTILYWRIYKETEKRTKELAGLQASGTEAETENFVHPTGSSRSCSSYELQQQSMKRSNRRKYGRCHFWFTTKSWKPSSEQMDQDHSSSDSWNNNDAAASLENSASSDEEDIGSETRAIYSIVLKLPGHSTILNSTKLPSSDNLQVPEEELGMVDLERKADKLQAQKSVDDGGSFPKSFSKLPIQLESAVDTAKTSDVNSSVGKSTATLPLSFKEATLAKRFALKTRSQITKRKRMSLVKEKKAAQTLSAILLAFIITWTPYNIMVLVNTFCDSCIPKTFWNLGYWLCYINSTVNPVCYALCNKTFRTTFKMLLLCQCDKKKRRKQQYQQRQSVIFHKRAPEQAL

Consider `C[N+]1([O-])CCN(C2=Nc3cc(Cl)ccc3Nc3ccccc32)CC1` [CNO, Clozapine-N-oxide], for which the “excitability of transduced MSNs upon CNO” value at hM3Dq [1] was “augmentation of excitability”. Further, the “cells in caudate activated (FIG. 12L)” value at hM3Dq [2] (34 total cells, CNO infusions, saline 18.8%) worked out at 67.6%. In addition, at hM3Dq [2] (setting [3]), the “cells in caudate inactivated (FIG. 12L)” value was 2.9% and the “cells in caudate unchanged (FIG. 12L)” value turned out to be 29.4%. Besides, on hM3Dq [2] (setting [4]), the “cells in caudate activated (FIG. 12C)” value is given as 70.6%, the “cells in caudate inactivated (FIG. 12C)” value was found to be 8.8% and the “cells in caudate unchanged (FIG. 12C)” value is listed as 20.6%.
